Results reported in US20070134261A1, “Effectors of innate immunity” (priority 2001, published 2007).
In brackets after ≈: the same amount, converted by molar mass. Read-outs that look alike come from different tables or passages of the source. Residues, ends and D or L forms follow the SMILES beside them. No end group written: not given here.

Legend:
[1] = type: cell-based
BALB/c mice = assay: Lethal endotoxemia in galactosamine-sensitized BALB/c mice; type: in vivo; settings: 2 μg LPS; peptide 200 μg/mouse = 8 mg/kg IP 15 min after LPS; 48 hours; no peptide 10
Salmonella = Salmonella infection in BALB/c mice (viable bacteria in spleen); type: in vivo, mouse; settings: mouse, in vivo, ip
Procedure: (§1) BALB/c mice were given 1×10^5 Salmonella and cationic peptide (200 μg) by intraperitoneal injection. The mice were monitored for 24 hours at which point they were euthanized, the spleen removed, homogenized and resuspended in PBS and plated on Luria Broth agar plates with Kanamycin (50 μg/ml). The plates were incubated overnight at 37° C. and counted for viable bacteria (Table 49 and 50). CD-1 mice were given 1×10^8 S. aureus in 5% porcine mucin and cationic peptide (200 μg) by intraperitoneal injection (Table 51). The mice were monitored for 3 days at which point they were euthanized, blood removed and plated for viable counts. CD-1 male mice were given 5.8×10^6 CFU EHEC bacteria and cationic peptide (200 μg) by intraperitoneal (IP) injection and monitored for 3 days (Table 52). […] Many of the cationic peptides were shown not to be directly antimicrobial as tested by the Minimum Inhibitory Concentration (MIC) assay (Table 54).

S. aureus = assay: Murine S. aureus infection model (CD-1 mice); type: in vivo, mouse; settings: peptide 200 μg IP
Procedure: as §1

[2] = test system: RAW 264.7 mouse macrophage cells; type: cell-based; settings: Peptide 20 μg/ml; 100 ng/ml E. coli 0111:B4 LPS, 6 h
[3] = test system: human bronchial epithelial cells (HBE); assay: LDH release assay (Cytotoxicity Detection Kit); type: cell-based; settings: 100 μg/ml, 24 hours; no peptide control 1.0 ± 0.05
Procedure: (§2) The potential toxicity of the peptides was measured in two ways. First, the Cytotoxicity Detection Kit (Roche) (Lactate dehydrogenase-LDH) Assay was used. It is a colorimetric assay for the quantification of cell death and cell lysis, based on the measurement of LDH activity released from the cytosol of damaged cells into the supernatant. LDH is a stable cytoplasmic enzyme present in all cells and it is released into the cell culture supernatant upon damage of the plasma membrane. An increase in the amount of dead or plasma membrane-damaged cells results in an increase of the LDH enzyme activity in the culture supernatant as measured with an ELISA plate reader, OD490 nm (the amount of color formed in the assay is proportional to the number of lysed cells). In this assay, human bronchial epithelial cells (I6HBEo14, HBE) cells were incubated with 100 μg of peptide for 24 hours, the supernatant removed and tested for LDH. The other assay used to measure toxicity of the cationic peptides was the WST-1 assay (Roche). This assay is a colorimetric assay for the quantification of cell proliferation and cell viability, based on the cleavage of the tetrazolium salt WST-1 by mitochondrial dehydrogenases in viable cells (a non-radioactive alternative to the [^3H]-thymidine incorporation assay). In this assay, HBE cells were incubated with 100 μg of peptide for 24 hours, and then 10 μl/well Cell Proliferation Reagent WST-1 was added. The cells are incubated with the reagent and the plate is then measured with an ELISA plate reader, OD490 nm.

HBE cells = assay: WST-1 assay (cell viability); type: cell-based, human
Procedure: as §2

[4] = test system: A549 human epithelial cells; assay: Induction of chemokines (IL-8, MCP-1) in A549 cells (ELISA); type: cell-based; settings: peptide 10 ug/ml, 24 hr
Procedure: The murine macrophage cell line RAW 264.7, THP-1 cells (human monocytes), a human epithelial cell line (A549), human bronchial epithelial cells (16HBEo14), and whole human blood were used. HBE cells were grown in MEM with Earle's. THP-1 cells were grown and maintained in RPMI 1640 medium. The RAW and A549 cell lines were maintained in DMEM supplemented with 10% fetal calf serum. […] DMEM was aspirated from cells grown overnight and replaced with fresh medium. After incubation of the cells with peptide, the release of chemokines into the culture supernatant was determined by ELISA (R&D Systems, Minneapolis, Minn.).

[5] = Staphylococcus aureus, overnight, 96-well plate

Molecule | MIC, C. rhod. ([1]; 24 h) [µg/mL] | MIC, E. coli ([1]; 24 h) [µg/mL] | MIC, EHEC ([1]; 24 h) [µg/mL] | MIC, S. aureus [1, 5] | Survival (BALB/c mice) [%] | Viable Bacteria in the Spleen (Salmonella) | CFU/ml (blood) (S. aureus; 3 days, No Peptide 7.61 ± 1.7 × 10^3) | # Mice Survived (3 days)/Total mice in group (S. aureus; No Peptide 6/8) | Inhibition of TNF-α [2] [%] | MIC, E. coli ([1]; Escherichia coli, overnight, 96-well plate) | LDH Release (OD490 nm) [3] [OD490 nm] | MIC, P. aerug. ([1]; 24 h) [µg/mL] | MIC, S. aureus ([1]; 24 h) [µg/mL] | MIC, S. typhim. ([1]; 24 h) [µg/mL] | OD490 nm (WST-1 cell viability) (HBE cells) [OD490 nm] | IL-8 [4] [ng/mL]
CC[C@H](C)[C@H](NC(=O)[C@H](CCCNC(=N)N)NC(=O)[C@H](CS)NC(=O)[C@H](CC(C)C)NC(=O)[C@@H](N)CC(C)C)C(=O)N[C@H](C(=O)N1CCC[C@H]1C(=O)N[C@H](C(=O)N[C@H](C(=O)N1CCC[C@H]1C(=O)N[C@@H](Cc1c[nH]c2ccccc12)C(=O)N[C@@H](CS)C(=O)N[C@@H](CCCCN)C(=O)O)[C@@H](C)CC)C(C)C)C(C)C [SEQ ID NO: 5] (H-LLCRIVPVIPWCK-OH; N-terminus and C-terminus assumed) | 64 (≈ 41.6 µM) | 128 (≈ 83.1 µM) | 64 (≈ 41.6 µM) | > | 17 | 2.75 ± 0.59 × 10^4 CFU/ml | 3.28 ± 1.7 × 10^3 CFU/ml | 4/4 | 65.6 ± 1.6 |  |  |  |  |  |  | 
DLPAKRGSAPGST (Cationic peptide) [SEQ ID NO: 12, Formula B cationic peptide] |  |  |  | > | 17 |  |  |  | 52.1 ± 0.38 | > |  |  |  |  |  | 
SLPIKHDRLPATS [SEQ ID NO: 15] | 128 | 128 | 64 | > | 0 |  |  |  | 69.4 ± 0.84 |  |  |  |  |  |  | 
CC[C@H](C)[C@H](NC(=O)[C@H](CS)NC(=O)[C@H](CCSC)NC(=O)[C@H](CCCNC(=N)N)NC(=O)[C@@H](N)CCCNC(=N)N)C(=O)N[C@@H](CCCCN)C(=O)N[C@H](C(=O)N[C@@H](CS)C(=O)N[C@H](C(=O)N[C@@H](CCCNC(=N)N)C(=O)NCC(=O)N[C@H](C(=O)N[C@@H](CS)C(=O)N[C@@H](CCCNC(=N)N)C(=O)N[C@@H](CCCNC(=N)N)C(=O)N[C@@H](CCCCN)C(=O)N[C@@H](CS)C(=O)N[C@@H](CCCNC(=N)N)C(=O)N[C@@H](CCCCN)C(=O)O)C(C)C)C(C)C)C(C)C [SEQ ID NO: 26] (H-RRMCIKVCVRGVCRRKCRK-OH; N-terminus and C-terminus assumed) | 2 (≈ 0.851 µM) | 0.5 (≈ 0.213 µM) | 0.5 (≈ 0.213 µM) |  | 0 | 7.1 ± 1.37 × 10^4 CFU/ml |  |  | 54.9 ± 1.6 |  | 0.93 ± 0.04 | 64 (≈ 27.2 µM) | 32 (≈ 13.6 µM) | 2 (≈ 0.851 µM) | 1.42 ± 0.11 | 0.201
CC[C@H](C)[C@H](NC(=O)[C@@H](NC(=O)[C@H](CCCNC(=N)N)NC(=O)[C@@H](NC(=O)[C@@H]1CCCN1C(=O)[C@H](CO)NC(=O)[C@H](CCCCN)NC(=O)[C@H](Cc1ccccc1)NC(=O)[C@@H](NC(=O)[C@H](CCCNC(=N)N)NC(=O)[C@H](CC(C)C)NC(=O)[C@H](Cc1ccccc1)NC(=O)[C@H](CO)NC(=O)[C@H](CCCCN)NC(=O)[C@H](Cc1c[nH]c2ccccc12)NC(=O)[C@@H](N)CCCCN)[C@@H](C)O)C(C)C)[C@@H](C)O)C(=O)N[C@@H](Cc1ccccc1)C(=O)N[C@@H](Cc1c[nH]cn1)C(=O)N[C@H](C(=O)N[C@@H](C)C(=O)N[C@@H](CC(C)C)C(=O)N[C@@H](CCCCN)C(=O)N1CCC[C@H]1C(=O)N[C@H](C(=O)N[C@@H](CO)C(=O)N[C@@H](CO)C(=O)O)[C@@H](C)CC)[C@@H](C)O [SEQ ID NO: 47] |  |  |  | > |  |  |  |  | 36.9 ± 2.2 |  | 1.05 ± 0.05 |  |  |  | 1.14 ± 0.23 | 0.383
